Values quoted from earlier work as cited in US4829051A, “N-substituted derivatives of 1-desaminovasopressin” (Vega Laboratories, Inc., priority 1984, dated 1989).

Conditions: in vivo

## NC(=O)CC[C@@H]1NC(=O)[C@H](Cc2ccccc2)NC(=O)[C@H](Cc2ccc(O)cc2)NC(=O)CCSSC[C@@H](C(=O)N2CCC[C@H]2C(=O)N[C@H](CCCN=C(N)N)C(=O)NCC(N)=O)NC(=O)[C@H](CC(N)=O)NC1=O [desmopressin]
  Antidiuretic activity: enhanced and prolonged antidiuretic activity
  Pressor activity: low pressor activity
